Consider 15 molecules from ChEMBL document CHEMBL1145235, “Optimization of pyrrolidinone based HIV protease inhibitors” (Bioorg Med Chem Lett, 2005).

One experiment deals with Human immunodeficiency virus type 1 protease (Human immunodeficiency virus 1, UniProt Q72874). The experiment in a line: Inhibition constant against HIV Protease.
A word on the Ki: it is a dissociation constant, usually derived from enzyme kinetics or from competition with a known ligand. As for `O=C(C[C@@H](Cc1ccc(OCCN2CCOCC2)cc1)C(=O)NC1c2ccccc2C[C@H]1O)CN1C(=O)[C@@H](Cc2ccccc2)C[C@@H]1Cc1ccccc1` (some centres undefined), the affinity corresponds to a Ki of 0.14 nM.

`O=C(C[C@@H](Cc1ccccc1)C(=O)NC1c2ccccc2C[C@H]1O)CN1C(=O)[C@@H](Cc2ccccc2)C[C@@H]1Cc1ccccc1` (some centres undefined) showed a Ki of 0.05 nM. Still for that read-out and setting: the value for `O=C(C[C@@H](Cc1ccc(OCc2ccccc2)cc1)C(=O)NC1c2ccccc2C[C@H]1O)CN1C(=O)[C@@H](Cc2ccccc2)C[C@@H]1Cc1ccccc1` (some centres undefined) was 0.11 nM. On the same count and under the same terms, the figure for `CN1CCN(C(=O)COc2ccc(C[C@H](CC(=O)CN3C(=O)[C@@H](Cc4ccccc4)C[C@@H]3Cc3ccccc3)C(=O)NC3c4ccccc4C[C@H]3O)cc2)CC1` (some centres undefined) is 0.05 nM. Still for that read-out and setting: the value for `O=C(C[C@@H](Cc1ccc(OCCO)cc1)C(=O)NC1c2ccccc2C[C@H]1O)CN1C(=O)[C@@H](Cc2ccccc2)C[C@@H]1Cc1ccccc1` (some centres undefined) was 0.02 nM; that for `O=C(C[C@@H](Cc1ccccc1)C(=O)NC1c2ccccc2C[C@H]1O)CN1C(=O)[C@@H](Cc2ccccc2)C[C@@H]1Cc1ccc(OCc2ccccc2)cc1` (some centres undefined) was 0.13 nM. `O=C(C[C@@H](Cc1ccccc1)C(=O)NC1c2ccccc2C[C@H]1O)CN1C(=O)[C@@H](Cc2ccccc2)C[C@@H]1Cc1ccc(OCC(=O)N2CCOCC2)cc1` (some centres undefined) had an inhibition constant Ki of 0.1 nM. On the same count and under the same terms, the figure for `COCCOCCOc1ccc(C[C@H](CC(=O)CN2C(=O)[C@@H](Cc3ccccc3)C[C@@H]2Cc2ccccc2)C(=O)NC2c3ccccc3C[C@H]2O)cc1` (some centres undefined) is 0.02 nM. Take `O=C(C[C@@H](Cc1ccc(OCC(=O)N2CCOCC2)cc1)C(=O)NC1c2ccccc2C[C@H]1O)CN1C(=O)[C@@H](Cc2ccccc2)C[C@@H]1Cc1ccccc1` (some centres undefined): the Ki amounted to 0.02 nM. In the case of `O=C(C[C@@H](Cc1ccc(O)cc1)C(=O)NC1c2ccccc2C[C@H]1O)CN1C(=O)[C@@H](Cc2ccccc2)C[C@@H]1Cc1ccccc1` (some centres undefined), the Ki stood at 0.06 nM.

`O=C(C[C@@H](Cc1ccccc1)C(=O)NC1c2ccccc2C[C@H]1O)CN1C(=O)[C@@H](Cc2ccccc2)C[C@@H]1Cc1ccc(OCCO)cc1` (some centres undefined): the Ki was found to be 0.3 nM. Same read-out and setting: the figure for `NC(=O)COc1ccc(C[C@H](CC(=O)CN2C(=O)[C@@H](Cc3ccccc3)C[C@@H]2Cc2ccccc2)C(=O)NC2c3ccccc3C[C@H]2O)cc1` (some centres undefined) is 0.07 nM; for `O=C(C[C@@H](Cc1ccc(OCc2ccccn2)cc1)C(=O)NC1c2ccccc2C[C@H]1O)CN1C(=O)[C@@H](Cc2ccccc2)C[C@@H]1Cc1ccccc1` (some centres undefined) it is 0.07 nM.

In turn, `O=C(C[C@@H](Cc1ccccc1)C(=O)NC1c2ccccc2C[C@H]1O)CN1C(=O)[C@@H](Cc2ccccc2)C[C@@H]1Cc1ccc(OCCN2CCOCC2)cc1` (some centres undefined) had a Ki of 1.3 nM.

A further experiment deals with MT4. Nature of the experiment: Antiviral inhibitory concentration against human immunodeficiency virus type 1 in MT-4 cell culture. The class given is functional, cell-based.
In general, IC50 refers to the concentration that inhibits the measured activity by half. `O=C(C[C@@H](Cc1ccc(OCCN2CCOCC2)cc1)C(=O)NC1c2ccccc2C[C@H]1O)CN1C(=O)[C@@H](Cc2ccccc2)C[C@@H]1Cc1ccccc1` (some centres undefined) came in with a 50% inhibitory concentration (IC50) of 83 nM. Same read-out and setting: the value for `O=C(C[C@@H](Cc1ccccc1)C(=O)NC1c2ccccc2C[C@H]1O)CN1C(=O)[C@@H](Cc2ccccc2)C[C@@H]1Cc1ccccc1` (some centres undefined) was 720 nM. Still for that read-out and setting: the figure for `O=C(C[C@@H](Cc1ccccc1)C(=O)NC1c2ccccc2C[C@H]1O)CN1C(=O)[C@@H](Cc2ccccc2)C[C@@H]1Cc1ccc(O)cc1` (some centres undefined) is 200 nM; for `O=C(C[C@@H](Cc1ccc(OCc2ccccc2)cc1)C(=O)NC1c2ccccc2C[C@H]1O)CN1C(=O)[C@@H](Cc2ccccc2)C[C@@H]1Cc1ccccc1` (some centres undefined) it is 920 nM; for `CN1CCN(C(=O)COc2ccc(C[C@H](CC(=O)CN3C(=O)[C@@H](Cc4ccccc4)C[C@@H]3Cc3ccccc3)C(=O)NC3c4ccccc4C[C@H]3O)cc2)CC1` (some centres undefined) it is 130 nM.

For `O=C(C[C@@H](Cc1ccc(OCCO)cc1)C(=O)NC1c2ccccc2C[C@H]1O)CN1C(=O)[C@@H](Cc2ccccc2)C[C@@H]1Cc1ccccc1` (some centres undefined), it took 94 nM to reach half-maximal inhibition (IC50). The IC50 values of the last two molecules are within 1.5-fold of each other. Same read-out and setting: the value for `O=C(C[C@@H](Cc1ccccc1)C(=O)NC1c2ccccc2C[C@H]1O)CN1C(=O)[C@@H](Cc2ccccc2)C[C@@H]1Cc1ccc(OCc2ccccc2)cc1` (some centres undefined) was 550 nM; that for `O=C(C[C@@H](Cc1ccccc1)C(=O)NC1c2ccccc2C[C@H]1O)CN1C(=O)[C@@H](Cc2ccccc2)C[C@@H]1Cc1ccc(OCC(=O)N2CCOCC2)cc1` (some centres undefined) was 200 nM; that for `COCCOCCOc1ccc(C[C@H](CC(=O)CN2C(=O)[C@@H](Cc3ccccc3)C[C@@H]2Cc2ccccc2)C(=O)NC2c3ccccc3C[C@H]2O)cc1` (some centres undefined) was 93 nM. On the same count and under the same terms, the figure for `O=C(C[C@@H](Cc1ccc(OCC(=O)N2CCOCC2)cc1)C(=O)NC1c2ccccc2C[C@H]1O)CN1C(=O)[C@@H](Cc2ccccc2)C[C@@H]1Cc1ccccc1` (some centres undefined) is 63 nM. `O=C(C[C@@H](Cc1ccc(O)cc1)C(=O)NC1c2ccccc2C[C@H]1O)CN1C(=O)[C@@H](Cc2ccccc2)C[C@@H]1Cc1ccccc1` (some centres undefined) had a concentration for half-maximal inhibition (IC50) of 320 nM. The same measure, in the same setting: the figure for `O=C(C[C@@H](Cc1ccccc1)C(=O)NC1c2ccccc2C[C@H]1O)CN1C(=O)[C@@H](Cc2ccccc2)C[C@@H]1Cc1ccc(OCCO)cc1` (some centres undefined) is 480 nM; for `NC(=O)COc1ccc(C[C@H](CC(=O)CN2C(=O)[C@@H](Cc3ccccc3)C[C@@H]2Cc2ccccc2)C(=O)NC2c3ccccc3C[C@H]2O)cc1` (some centres undefined) it is 360 nM; for `O=C(C[C@@H](Cc1ccc(OCc2ccccn2)cc1)C(=O)NC1c2ccccc2C[C@H]1O)CN1C(=O)[C@@H](Cc2ccccc2)C[C@@H]1Cc1ccccc1` (some centres undefined) it is 380 nM.

Regarding `O=C(C[C@@H](Cc1ccccc1)C(=O)NC1c2ccccc2C[C@H]1O)CN1C(=O)[C@@H](Cc2ccccc2)C[C@@H]1Cc1ccc(OCCN2CCOCC2)cc1` (some centres undefined), the IC50 is 960 nM.
